Source: patent EP0908457B1, “3-(1,2-benzisothiazol- and isoxazol-5-Y1)-2,4(1H,3H)-pyrimidinedione or thione and 3-(1,2-benzisothiazol- and isoxazol-5-y1)-4(3H)-pyrimidinone or thione herbicidal agents” (BASF AKTIENGESELLSCHAFT, priority 1997, dated 1999)

Assays:
[1] = tested on: Echinochloa oryzoides (Ard.) Fritsch.; experiment: Preemergence weed control under flooded paddy conditions, ECHORC (Watergrass (Calif.)); assay type: in vivo; details: preemergence, flooded paddy, rated 3-4 weeks after treatment; note: meaning of each grade not given here
Cyperus iria [2] = experiment: Preemergence weed control under flooded paddy conditions, CYPIR (Rice Flatsedge); assay type: in vivo; details: preemergence, flooded paddy, rated 3-4 weeks after treatment; note: meaning of each grade not given here
[3] = tested on: Cyperus serotinus, Rottb.; experiment: Preemergence weed control under flooded paddy conditions, CYPSE (Flatsedge); assay type: in vivo; details: preemergence, rated 3-4 weeks after treatment; note: meaning of each grade not given here
[4] = tested on: Monochoria vaginalis, Presl.; experiment: Preemergence weed control under flooded paddy conditions, MOOVA (Monochoria); assay type: in vivo; details: preemergence, flooded paddy, rated 3-4 weeks after treatment; note: meaning of each grade not given here
Sagittaria pygmaea, L. [5] = experiment: Preemergence weed control under flooded paddy conditions, SAGPY (Arrowhead (Pygmaea)); assay type: in vivo; details: preemergence, flooded paddy, rated 3-4 weeks after treatment; note: meaning of each grade not given here
[6] = tested on: Echinochloa oryzoides (Ard.) Fritsch.; experiment: Postemergence weed control under flooded paddy conditions, ECHORC (Watergrass (Calif.)); assay type: in vivo; details: rated three to four weeks after treatment
Cyperus iria [7] = experiment: Postemergence weed control under flooded paddy conditions, CYPIR (Rice Flatsedge); assay type: in vivo; details: rated three to four weeks after treatment
[8] = tested on: Cyperus serotinus, Rottb.; experiment: Postemergence weed control under flooded paddy conditions, CYPSE (Flatsedge); assay type: in vivo; details: rated three to four weeks after treatment
[9] = tested on: Monochoria vaginalis, Presl.; experiment: Postemergence weed control under flooded paddy conditions, MOOVA (Monochoria); assay type: in vivo; details: rated three to four weeks after treatment
Sagittaria pygmaea, L. [10] = experiment: Postemergence weed control under flooded paddy conditions, SAGPY (Arrowhead (Pygmaea)); assay type: in vivo; details: rated three to four weeks after treatment
[11] = tested on: Oryza sativa, (L.) Tebonnet; experiment: Rice tolerance to post-transplant applications under flooded paddy conditions (Example 187), ORYSAT (Rice, Tebonnet); details: rated 3-4 weeks after treatment; note: meaning of each grade not given here
[12] = tested on: Oryza sativa, (L.) Tebonnet; experiment: Rice tolerance to post-transplant applications under flooded paddy conditions (Example 188), ORYSAT (Rice, Tebonnet); details: rated three to four weeks after treatment

C#CCOC(=O)C(C)(C)Oc1ccc(C)cc1-c1nsc2ccc(-n3c(=O)cc(C(F)(F)F)n(C)c3=O)cc12 [Example 528, Propionic acid, 2-{{2-{5-[3,6-dihydro-3-methyl-2,6-dioxo-4-(trifluoromethyl)-1(2H)-pyrimidinyl]-1,2-benzisothiazol-3-yl}-p-tolyl}oxy}-2-methyl-, 2-propynyl ester]
herbicidal effect rating, ECHORC ([1]; Rate 0.0320 kg/ha): 9.0 | herbicidal effect rating, ECHORC ([1]; Rate 0.0620 kg/ha): 9.0 | herbicidal effect rating, ECHORC ([1]; Rate 0.1250 kg/ha): 9.0 | herbicidal effect rating, ECHORC ([1]; Rate 0.2500 kg/ha): 9.0 | herbicidal effect rating, CYPIR (Cyperus iria [2]; Rate 0.0320 kg/ha): 4.5 | herbicidal effect rating, CYPIR (Cyperus iria [2]; Rate 0.0620 kg/ha): 5.0 | herbicidal effect rating, CYPIR (Cyperus iria [2]; Rate 0.1250 kg/ha): 5.0 | herbicidal effect rating, CYPIR (Cyperus iria [2]; Rate 0.2500 kg/ha): 9.0 | herbicidal effect rating, CYPSE ([3]; Rate 0.0320 kg/ha): 0.0 | herbicidal effect rating, CYPSE ([3]; Rate 0.0620 kg/ha): 0.0 | herbicidal effect rating, CYPSE ([3]; Rate 0.1250 kg/ha): 0.0 | herbicidal effect rating, CYPSE ([3]; Rate 0.2500 kg/ha): 0.0 | herbicidal effect rating, MOOVA ([4]; Rate 0.0320 kg/ha): 9.0 | herbicidal effect rating, MOOVA ([4]; Rate 0.0620 kg/ha): 9.0 | herbicidal effect rating, MOOVA ([4]; Rate 0.1250 kg/ha): 9.0 | herbicidal effect rating, MOOVA ([4]; Rate 0.2500 kg/ha): 9.0 | herbicidal effect rating, SAGPY (Sagittaria pygmaea, L. [5]; Rate 0.0320 kg/ha): 1.0 | herbicidal effect rating, SAGPY (Sagittaria pygmaea, L. [5]; Rate 0.0620 kg/ha): 0.0 | herbicidal effect rating, SAGPY (Sagittaria pygmaea, L. [5]; Rate 0.1250 kg/ha): 1.5 | herbicidal effect rating, SAGPY (Sagittaria pygmaea, L. [5]; Rate 0.2500 kg/ha): 3.0 | herbicidal effect rating, ECHORC ([6]; Rate 0.0320 kg/ha): 0.0 | herbicidal effect rating, ECHORC ([6]; Rate 0.0620 kg/ha): 7.0 | herbicidal effect rating, ECHORC ([6]; Rate 0.1250 kg/ha): 9.0 | herbicidal effect rating, ECHORC ([6]; Rate 0.2500 kg/ha): 9.0 | herbicidal effect rating, CYPIR (Cyperus iria [7]; Rate 0.0320 kg/ha): 6.0 | herbicidal effect rating, CYPIR (Cyperus iria [7]; Rate 0.0620 kg/ha): 6.0 | herbicidal effect rating, CYPIR (Cyperus iria [7]; Rate 0.1250 kg/ha): 6.0 | herbicidal effect rating, CYPIR (Cyperus iria [7]; Rate 0.2500 kg/ha): 6.0 | herbicidal effect rating, CYPSE ([8]; Rate 0.0320 kg/ha): 0.0 | herbicidal effect rating, CYPSE ([8]; Rate 0.0620 kg/ha): 0.0 | herbicidal effect rating, CYPSE ([8]; Rate 0.1250 kg/ha): 0.0 | herbicidal effect rating, CYPSE ([8]; Rate 0.2500 kg/ha): 9.0 | herbicidal effect rating, MOOVA ([9]; Rate 0.0320 kg/ha): 0.0 | herbicidal effect rating, MOOVA ([9]; Rate 0.0620 kg/ha): 0.0 | herbicidal effect rating, MOOVA ([9]; Rate 0.1250 kg/ha): 9.0 | herbicidal effect rating, MOOVA ([9]; Rate 0.2500 kg/ha): 9.0 | herbicidal effect rating, SAGPY (Sagittaria pygmaea, L. [10]; Rate 0.0320 kg/ha): 0.0 | herbicidal effect rating, SAGPY (Sagittaria pygmaea, L. [10]; Rate 0.0620 kg/ha): 0.0 | herbicidal effect rating, SAGPY (Sagittaria pygmaea, L. [10]; Rate 0.1250 kg/ha): 0.0 | herbicidal effect rating, SAGPY (Sagittaria pygmaea, L. [10]; Rate 0.2500 kg/ha): 3.0 | herbicidal effect rating ORYSAT ([11]; Rate 0.0320 kg/ha): 1.5 | herbicidal effect rating ORYSAT ([11]; Rate 0.0620 kg/ha): 3.5 | herbicidal effect rating ORYSAT ([11]; Rate 0.1250 kg/ha): 7.0 | herbicidal effect rating ORYSAT ([11]; Rate 0.2500 kg/ha): 9.0 | herbicidal effect rating, ORYSAT (rice tolerance) ([12]; Rate 0.0320 kg/ha): 0.0 | herbicidal effect rating, ORYSAT (rice tolerance) ([12]; Rate 0.0620 kg/ha): 0.0 | herbicidal effect rating, ORYSAT (rice tolerance) ([12]; Rate 0.1250 kg/ha): 2.0 | herbicidal effect rating, ORYSAT (rice tolerance) ([12]; Rate 0.2500 kg/ha): 3.0
